This is an account of results in patent publication US11072584B2, “Carbon monoxide releasing norbornenone compounds” (OTAGO INNOVATION LIMITED, priority 2015, dated 2021).

≈ marks a conversion by molar mass, not a printed value. Counter-ions that a name gives are not always drawn. Like-named read-outs stand apart in the source and are kept apart here.

Data set [1] deals with MDA-MB-231. As to the kind of experiment: crystal violet cell viability assay. Format: cell-based. Particulars: for EC50: Homo sapiens.
Description: The loss of cell adhesion for anchorage-dependent cell lines, such as MDCK, represents a surrogate marker of imminent cellular demise which can be measured by the crystal violet cell adhesion (CVCA) assay.^42 MDCK cells were grown in DMEM supplemented with 4% donor calf serum and 1% antibiotic (Gibco Life Technologies, Auckland NZ) and plated at 1×10^6 cells/mL in 24 well plates. CO donor compounds, CO expired compounds (left in solution for over 48 hours) or non CO releasing, debromo derivatives were dissolved in either ultrapure water or for non-water soluble compounds, in DMSO and diluted to 20-100 μM (to a final concentration of 1% DMSO where appropriate). Cells were exposed to CO donor compounds or the respective vehicle control solution for 1 hour at 37° C. prior to washing and incubating for a further 23 hours in fresh media. Cells were fixed in 96% ethanol and stained in 0.05% crystal violet solution in 20% ethanol, prior to washing and solubilising (24 hours) in 2 mL 0.1% acetic acid in 50% ethanol. Sample solutes (100 μL) from each well were transferred into a 96 well plate and absorbance measured at 585 nm. Cell survival was reported as a percentage of the value obtained for cells exposed to vehicle only and used to plot a concentration-response curve for each compound from which an EC50 value was obtained.
Toxicity was reported as EC50 values calculated from percentage cell survival using Origin Pro8 software (OriginLab, MA, USA).
In data set [2] the test system is MDCK cells. As to the kind of experiment: crystal violet cell adhesion (CVCA) cell toxicity assay. Particulars: Canis lupus familiaris, MDCK, read-out: EC50 (μM), Active Compound.
A short description of data set [3]: Solubility in water. Format: physicochemical. Particulars: for solubility (in words): water or physiological buffers.
[4] abbreviates: * (MDA-MB-231), inactive CO depleted analogues, 37° C., read-out: EC50 (μM), Inactive Compound.

A word on the EC50: it is the concentration at which the effect is half-maximal. As to `COCCOCCOCCOc1ccc(-c2c(C)c3c(c(C)c2-c2ccc(OCCOCCOCCOC)cc2)C(=O)N(c2ccc(OCCOCCOCCOC)cc2)C3=O)cc1` [BP-15, 2,5,6-Tri-(4-(2-(2-(2-methoxyethoxy)ethoxy)ethoxy)phenyl)-4,7-dimethyl-1H-isoindole-1,3(2H)-dione], the EC50 in data set [1] (setting [4]) is above 200 µM.

For `Cc1c2c(c(C)c(-c3ccccc3)c1-c1ccccc1)C(=O)N(CCC(=O)ON1C(=O)CCC1=O)C2=O` [BP-17, 2,5-Dioxo-1-pyrrolidinyl 4,7-dimethyl-5,6-diphenyl-1H-isoindole-1,3(2H)-dione-2-propanoate], the EC50 in data set [1] (setting [4]) is 159 µM.

Take `CC12C(=O)C(C)(C(c3ccccc3)=C1c1ccccc1)C1(Br)C(=O)N(c3ccccc3)C(=O)C21` (centres unmarked) [oCOm-1, 3a-Bromo-3a,4,7,7a-tetrahydro-4,7-dimethyl-2,5,6-triphenyl-4,7-methano-1H-isoindole-1,3,8(2H)-trione]: the EC50 in data set [1] (*MDA-MB-231 cells, 1 hr exposure at 37° C., viability after 23 hrs, read-out: EC50 (μM), Active Compound) worked out at 4.6 µM. Moreover, the “cellular toxicity (in words)” value in data set [1] (MDA-MB-231 cells) is reported as “greatest toxicity”.

For `CC12C(=O)C(C)(C(c3ccccc3)=C1c1ccccc1)C1(Br)C(=O)N(CCCC[C@H](N)C(=O)O)C(=O)C21` (stereo partly drawn) [oCOm-28, (2S)-2-Amino-6-(3a-bromo-4,7-dimethyl-1,3,8-trioxo-5,6-diphenyl-1,3,3a,4,7,7a-hexahydro-2H-4,7-methanoisoindol-2-yl)hexanoic Acid Trifluoroacetic Acid Salt], in data set [2], the EC50 was above 100 µM. Besides, the “solubility (in words)” value in data set [3] is on record as “water soluble”.

Regarding `COC(=O)[C@@H](N)CCCCN1C(=O)C2C3(C)C(=O)C(C)(C(c4ccccc4)=C3c3ccccc3)C2(Br)C1=O` (stereo partly drawn) [oCOm-30, Methyl (2S)-2-amino-6-(3a-bromo-4,7-dimethyl-1,3,8-trioxo-5,6-diphenyl-1,3,3a,4,7,7a-hexahydro-2H-4,7-methanoisoindol-2-yl)hexanoate Trifluoroacetic Acid Salt], in data set [2], the EC50 is above 100 µM. In addition, the “solubility (in words)” value in data set [3] is on record as “water soluble”.

As to `CCOC(=O)[C@@H](N)CCCCN1C(=O)C2C3(C)C(=O)C(C)(C(c4ccccc4)=C3c3ccccc3)C2(Br)C1=O` (stereo partly drawn) [oCOm-32, Ethyl (2S)-2-amino-6-(3a-bromo-4,7-dimethyl-1,3,8-trioxo-5,6-diphenyl-1,3,3a,4,7,7a-hexahydro-2H-4,7-methanoisoindol-2-yl)hexanoate Trifluoroacetic Acid Salt], the EC50 in data set [2] was above 100 µM. Moreover, the “solubility (in words)” value in data set [3] is listed as “water soluble”.

Consider `CCCOC(=O)[C@@H](N)CCCCN1C(=O)C2C3(C)C(=O)C(C)(C(c4ccccc4)=C3c3ccccc3)C2(Br)C1=O` (stereo partly drawn) [oCOm-34, nPropyl (2S)-2-amino-6-(3a-bromo-4,7-dimethyl-1,3,8-trioxo-5,6-diphenyl-1,3,3a,4,7,7a-hexahydro-2H-4,7-methanoisoindol-2-yl)hexanoate Trifluoroacetic Acid Salt], for which the EC50 in data set [2] was above 100 µM. For the same molecule, the “solubility (in words)” value in data set [3] is listed as “water soluble”.

Take `COC(=O)[C@@H](N)CCCN1C(=O)C2C3(C)C(=O)C(C)(C(c4ccccc4)=C3c3ccccc3)C2(Br)C1=O` (stereo partly drawn) [oCOm-40, Methyl (2S) 2-amino-5-(3a-bromo-4,7-dimethyl-1,3,8-trioxo-5,6-diphenyl-1,3,3a,4,7,7a-hexahydro-2H-4,7-methanoisoindol-2-yl)-pentanoate Trifluoroacetic Acid Salt]: the EC50 in data set [2] was above 100 µM. Besides, the “solubility (in words)” value in data set [3] is reported as “water soluble”.

By solubility is commonly meant the concentration that dissolves in the medium under given conditions. Low readings indicate little dissolved substance, high ones much dissolved substance. As to `CC12C(=O)C(C)(C(c3ccccc3)=C1c1ccccc1)C1(Br)C(=O)N(Cc3cn(CCOC4OC(CO)C(O)C(O)C4O)nn3)C(=O)C21` [oCOm-49, 3a-Bromo-3a,4,7,7a-tetrahydro-4,7-dimethyl-2-[[1-(2-α-D-mannopyranosyloxy)ethyl]-1H-1,2,3-triazol-4yl]methyl-5,6-diphenyl-4,7-methano-1H-isoindole-1,3,8(2H)-trione], in data set [2], the EC50 is above 200 µM. For the same molecule, the “solubility (in words)” value in data set [3] is listed as “decreased water solubility”. Besides, the solubility in data set [3] (water, 21° C.) came out at 900 µg/mL (≈ 1240 µM).
